{
  "source": "patent US20250177366A1",
  "about": "“COMPOSITIONS AND METHODS FOR ALLEVIATING PAIN AND REDUCING ADVERSIVENESS OF STIMULI” (UNIVERSITY OF WASHINGTON, priority 2021, published 2025)",
  "key": {"[1]": {"test_system": "larval zebrafish", "assay": "Sensitized thermal aversion assay (28.5° vs 31.5° C. after AITC), small molecule screen", "type": "in vivo, Zebrafish (Danio rerio)", "conditions": "10 min incubation then AITC 0.5 μM", "text": "The Novel Analgesic AS1 reverses the valence of normally aversive stimuli. In a previously published study, a novel high throughput temperature discrimination assay utilizing larval zebrafish that modeled acute and sensitized temperature aversion were developed (FIG. 1A) (Curtright et al., PLoS One. 2015; 10:1-18). […] Also shown is that multiple small molecule analgesics could reverse acute and/or sensitized thermal aversion while non-analgesics could not.\nUsing the sensitized thermal aversion assay, a small molecule library was screened in order to identify targets in pain transduction pathways and potential entry points for therapeutic intervention. The compounds were selected from Chembridge's CNS-Set (https://www.chembridge.com), which consists of small molecules selected for blood brain barrier penetration and oral bioavailability. Compounds were selected from across the library to maximize the diversity of molecules screened. Small molecules were initially pooled (8 per pool) to maximize screening efficiency. […]\nThermal preference assay. […] Locomotor behavior was recorded using a Canon high-definition video camcorder suspended at a fixed position above the choice testing plate. […]"}, "[2]": {"test_system": "trigeminal neurons", "assay": "CaMPARI neuronal activity assay", "type": "in vivo, Zebrafish (Danio rerio)", "conditions": "5 μM AS1; 28.5° C. or 37.5° C.", "text": "Brain regions associated with dopaminergic circuitry are specifically activated in the concurrent presence of AS1 and noxious stimuli. It was next sought to determine in an unbiased manner where in the zebrafish nervous system AS1 was exerting its effects by examining neuronal activity in the context of noxious stimuli. […] Many analgesics can act upon multiple different levels of pain transduction circuitry. For example, MORs can be found upon peripheral somatosensory neurons, spinal cord neurons, and numerous neuronal populations in the brain, and both exogenous and endogenous opioids can modulate the activity of any of these neurons (Corder et al., Annu. Rev. Neurosci. 2018; 41: 453-473). To investigate whether peripheral somatosensory neurons were also influenced by AS1, a neuronal activity assay upon transgenic zebrafish expressing the genetically-encoded calcium indicator CaMPARI in all neurons was performed. This fluorescent protein permanently photoconverts from green to red in the presence of a 405 nm light and high calcium (a proxy for neuronal activity), allowing “snapshots” of neuronal activity at a single time point (Fosque et al., Science. 2015; 347(6223):755-760). Fish were exposed to conditions of 28.5° C. or 37.5° C. with or without AS1 in the presence of a blue light, and then the trigeminal ganglia (TG) were surveyed for photoconverted neurons. […]"}},
  "data": [
    {"smiles": "CC(C)c1ccc(C(=O)Nc2ccncc2)cc1", "note": "[AS1, 4-propan-2-yl-N-pyridin-4-ylbenzamide]", "values": [
      {"measurement": "sensitized thermal aversion / place preference", "setting": "[1]", "result": "induced place preference for the noxious zone"},
      {"measurement": "Number of photoconverted trigeminal neurons, AS1-treated vs control", "setting": "[2]", "result": "No significant difference"}
    ]}
  ]
}
